Earlier results, collected in patent publication US8470366B2, “Nicotine containing soft gelatin pastilles” (priority 2010, dated 2013).

Key:
[1] = background statement
[2] = background statement; remark: listed apart in the source

Structure (SMILES)	Physiological activity relative to (−) nicotine [1]	Half life of nicotine in the body [2]
CN1CCCC1c1cccnc1 (single isomer, unassigned; (+)) [(+) nicotine]	one-half	
CN1CCCC1c1cccnc1 (centres unmarked) [nicotine, Nicotine]		around two
